# Biological target: T1, Recombinant human liver GK1 (GST-GK) (Homo sapiens, UniProt P35557)
# T1 construct: made in house; host or cells: E. coli
# T1 sequence (P35557 1-466 isoform P35557-2): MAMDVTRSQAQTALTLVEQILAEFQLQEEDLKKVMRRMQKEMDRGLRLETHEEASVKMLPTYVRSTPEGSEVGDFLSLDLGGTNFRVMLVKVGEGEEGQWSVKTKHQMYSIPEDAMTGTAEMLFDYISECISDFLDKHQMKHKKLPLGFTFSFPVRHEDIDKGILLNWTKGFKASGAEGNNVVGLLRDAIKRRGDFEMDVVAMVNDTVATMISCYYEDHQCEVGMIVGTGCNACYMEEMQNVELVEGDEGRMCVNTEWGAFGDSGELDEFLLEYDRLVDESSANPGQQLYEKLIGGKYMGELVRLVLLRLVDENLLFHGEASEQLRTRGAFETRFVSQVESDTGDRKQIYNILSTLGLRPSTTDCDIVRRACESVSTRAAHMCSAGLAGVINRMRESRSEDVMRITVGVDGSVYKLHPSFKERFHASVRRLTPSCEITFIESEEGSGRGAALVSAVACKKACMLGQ
# Experiment: In vitro glucokinase activity (G6PDH-coupled NADH assay)
# Format: biochemical
# Settings: 30° C., 5 mM D-glucose, 10% DMSO
# Experimental: Glucokinase In Vitro Assay Protocol: Glucokinase (GK) was assayed by coupling the production of glucose-6-phosphate to the generation of NADH with glucose-6-phosphate dehydrogenase (G6PDH, 0.75-1 kunits/mg; Boehringer Mannheim, Indianapolis, Ind.) from Leuconostoc mesenteroides as the coupling enzyme (Scheme 2).
# Recombinant human liver GK1 was expressed in E. coli as a glutathione S-transferase fusion protein (GST-GK) [Liang et al, 1995] and was purified by chromatography over a glutathione-Sepharose 4B affinity column using the procedure provided by the manufacturer (Amersham Pharmacia Biotech, Piscataway, N.J.).
# The assay was conducted at 30° C. in a flat bottom 96-well tissue culture plate from Costar (Cambridge, Mass.) with a final incubation volume of 120 μL. The incubation reaction contained the following: 25 mM Hepes buffer (pH 7.1), 25 mM KCl, 5 mM D-glucose, 1 mM ATP, 1.8 mM NAD, 2 mM MgCl2, 1 μM sorbitol-6-phosphate, 1 mM dithiothreitol, test drug or 10% dimethylsulfoxide, ˜7 units/ml G6PDH, and GK (see below). All organic reagents were >98% pure and were from Boehringer Mannheim with the exceptions of D-glucose and Hepes which were from Sigma Chemical Co, St Louis, Mo. Test compounds were dissolved in dimethylsulfoxide and were added to the incubation reaction minus GST-GK in a volume of 12 μL to yield a final dimethylsulfoxide concentration of 10%. This mix was pre-incubated in the temperature controlled chamber of a SPECTRAmax 250 microplate spectrophotometer (Molecular Devices Corporation, Sunnyvale, Calif.) for 10 min to allow temperature equilibrium and then the reaction was started by the addition of 20 μL GST-GK.
# After addition of enzyme, the increase in optical density (OD) at 340 nm was monitored spectrophotometrically to determine the rate of change (OD340 per min). The GK activity (OD340/min) in control wells (10% DMSO minus GK activators) was compared with the activity in wells containing test GK activators, and the concentration of activator that produced a 50% increase in the activity of GK, i.e., the SC1.5, was calculated. The table below provides the in vitro glucokinase activity for the compounds in the Examples: […]
row,Structure (SMILES),SC1.5 (concentration of activator that produced a 50% increase in the activity of GK) [µM]
1,"CC(C)(O)Cn1ccc(NC(=O)[C@H](CC2CCCCC2)N2CC(Oc3ccccc3OCc3ccccc3)=CC2=O)n1 [Example 203, (S)-2-[4-(2-benzyloxy-phenoxy)-2-oxo-2,5-dihydro-pyrrol-1-yl]-3-cyclohexyl-N-[1-(2-hydroxy-2-methyl-propyl)-1H-pyrazol-3-yl]-propionamide]",0.253
2,"COCc1nsc(NC(=O)[C@H](CC(C)C)N2CC(Oc3ccccc3Cl)=CC2=O)n1 [Example 112, (S)-2-[4-(2-Chloro-phenoxy)-2-oxo-2,5-dihydro-pyrrol-1-yl]-4-methyl-pentanoic acid (3-methoxymethyl-[1,2,4]thiadiazol-5-yl)-amide]",2.26
3,"COc1cccc(OC2=CC(=O)N([C@@H](CC(C)C)C(=O)Nc3ccn(CC(C)(C)O)n3)C2)c1 [Example 165, (S)-2-[4-(3-Methoxy-phenoxy)-2-oxo-2,5-dihydro-pyrrol-1-yl]-4-methyl-pentanoic acid [1-(2-hydroxy-2-methyl-propyl)-1H-pyrazol-3-yl]-amide]",0.243
4,"CCOc1ccccc1OC1=CC(=O)N([C@@H](CC(C)C)C(=O)Nc2ccn(C)n2)C1.Cl [Example 82, (S)-2-[4-(2-Ethoxy-phenoxy)-2-oxo-2,5-dihydro-pyrrol-1-yl]-4-methyl-pentanoic acid (1-methyl-1H-pyrazol-3-yl)-amide Hydrochloride]",2.591
5,"O=C(Nc1ccn(C[C@@H](O)CO)n1)[C@H](CC1CCCCC1)N1CC(Oc2c(F)cccc2F)=CC1=O [Example 38, (S)-3-Cyclohexyl-2-[4-(2,6-difluoro-phenoxy)-2-oxo-2,5-dihydro-pyrrol-1-yl]-N-[1-((R)-2,3-dihydroxy-propyl)-1H-pyrazol-3-yl]-propionamide]",0.027
6,"O=C(Nc1ccn(C[C@@H](O)CO)n1)C(CC(C(F)(F)F)C(F)(F)F)N1CC(Oc2ccccc2Cl)=CC1=O (stereo partly drawn) [Example 219, 2-[4-(2-Chloro-phenoxy)-2-oxo-2,5-dihydro-pyrrol-1-yl]-5,5,5-trifluoro-4-trifluoromethyl-pentanoic acid [1-((R)-2,3-dihydroxy-propyl)-1H-pyrazol-3-yl]-amide]",4.287
7,"CC(C)C[C@@H](C(=O)Nc1ccn(C[C@@H](O)CO)n1)N1CC(Oc2ccc(F)cc2F)=CC1=O [Example 102, (S)-2-[4-(2,4-Difluoro-phenoxy)-2-oxo-2,5-dihydro-pyrrol-1-yl]-4-methyl-pentanoic acid [1-((R)-2,3-dihydroxy-propyl)-1H-pyrazol-3-yl]-amide]",0.578
8,"CC(C)(O)Cn1ccc(NC(=O)[C@H](CC2CCCCO2)N2CC(Oc3cccc(Cl)c3Cl)=CC2=O)n1 (stereo partly drawn) [Example 92, (S)-2-[4-(2,3-Dichloro-phenoxy)-2-oxo-2,5-dihydro-pyrrol-1-yl]-N-[1-(2-hydroxy-2-methyl-propyl)-1H-pyrazol-3-yl]-3-(tetrahydro-pyran-2-yl)-propionamide]",0.161
9,"CC(C)C[C@@H](C(=O)Nc1cnccn1)N1CC(Oc2cccc(CC(C)(C)O)c2)=CC1=O [Example 246, (S)-2-{4-[3-(2-Hydroxy-2-methyl-propyl)-phenoxy]-2-oxo-2,5-dihydro-pyrrol-1-yl}-4-methyl-pentanoic acid pyrazin-2-ylamide]",1.708
10,"C=Cc1cccc(OC2=CC(=O)N([C@@H](CC(C)C)C(=O)Nc3ccn(C[C@@H]4COC(C)(C)O4)n3)C2)c1F [Example 144, (S)-2-[4-(2-Fluoro-3-vinyl-phenoxy)-2-oxo-2,5-dihydro-pyrrol-1-yl]-4-methyl-pentanoic acid [1-((R)-2,2-dimethyl-[1,3]dioxolan-4-yl-methyl)-1H-pyrazol-3-yl]-amide]",0.251
11,"CCOc1ccc(F)c(OC2=CC(=O)N([C@@H](CC(C)C)C(=O)Nc3ccn(C[C@@H](O)CO)n3)C2)c1F [Example 117, (S)-2-[4-(3-Ethoxy-2,6-difluoro-phenoxy)-2-oxo-2,5-dihydro-pyrrol-1-yl]-4-methyl-pentanoic acid [1-((R)-2,3-dihydroxy-propyl)-1H-pyrazol-3-yl]-amide]",0.034
12,"Cc1cccc(OC2=CC(=O)N([C@@H](CC(C)C)C(=O)Nc3ccn(CCO)n3)C2)c1F [Example 133, (S)-2-[4-(2-Fluoro-3-methyl-phenoxy)-2-oxo-2,5-dihydro-pyrrol-1-yl]-4-methyl-pentanoic acid [1-(2-hydroxy-ethyl)-1H-pyrazol-3-yl]-amide]",0.249
13,"CC(C)(O)Cn1ccc(NC(=O)[C@H](C[C@@H]2CCCCO2)N2CC(Oc3c(F)cccc3F)=CC2=O)n1 [Example 262, (S)-2-[4-(2,6-Difluoro-phenoxy)-2-oxo-2,5-dihydro-pyrrol-1-yl]-N-[1-(2-hydroxy-2-methyl-propyl)-1H-pyrazol-3-yl]-3-tetrahydro-pyran-2-yl-propionamide]",0.33
14,"CCOC(=O)Cn1ccc(NC(=O)[C@H](CC(C)C)N2CC(Oc3cccc(C4CC4)c3F)=CC2=O)n1 [Example 148, (3-{(S)-2-[4-(3-Cyclopropyl-2-fluoro-phenoxy)-2-oxo-2,5-dihydro-pyrrol-1-yl]-4-methyl-pentanoylamino}-pyrazol-1-yl)-acetic acid ethyl ester]",0.21
15,"CC(C)OCCn1ccc(NC(=O)[C@H](CC2CCCC2)N2CC(OC3CCCC3)=CC2=O)n1 [Example 20, (S)-3-Cyclopentyl-N-[1-(2-isopropoxy-ethyl)-1H-pyrazol-3-yl]-2-(4-cyclopentyloxy-2-oxo-2,5-dihydro-pyrrol-1-yl)-propionamide]",1.388
16,"COc1cccc(OC2=CC(=O)N(C(CC(C)(C)F)C(=O)Nc3ccn(CC(C)(C)O)n3)C2)c1Cl (centres unmarked) [Example 171, 2-[4-(2-Chloro-3-methoxy-phenoxy)-2-oxo-2,5-dihydro-pyrrol-1-yl]-4-fluoro-4-methyl-pentanoic acid [1-(2-hydroxy-2-methyl-propyl)-1H-pyrazol-3-yl]-amide]",3.485
17,"COc1cccc(OC2=CC(=O)N([C@@H](CC3CCCCC3)C(=O)Nc3ccn(C[C@@H](O)CO)n3)C2)c1 [Example 164, (S)-3-Cyclohexyl-N-[1-((R)-2,3-dihydroxy-propyl)-1H-pyrazol-3-yl]-2-[4-(3-methoxy-phenoxy)-2-oxo-2,5-dihydro-pyrrol-1-yl]-propionamide]",0.012
18,"COc1ccccc1OC1=CC(=O)N(C(CC2CCOCC2)C(=O)Nc2ccn(CC(C)(C)O)n2)C1 (centres unmarked) [Example 34, N-[1-(2-hydroxy-2-methyl-propyl)-1H-pyrazol-3-yl]-2-[4-(2-methoxy-phenoxy)-2-oxo-2,5-dihydro-pyrrol-1-yl]-3-(tetrahydropyran-4-yl)-propionamide]",0.217
19,CC1(C)OC[C@@H](Cn2ccc(NC(=O)[C@H](CC3CCCCC3)N3CC(Oc4ccccc4Cl)=CC3=O)n2)O1 [Example 62],0.01
20,"O=C(Nc1ccn(C[C@@H](O)CO)n1)[C@H](Cc1c(F)cccc1F)N1CC(Oc2ccccc2Cl)=CC1=O [Example 185, (S)-2-[4-(2-chloro-phenoxy)-2-oxo-2,5-dihydro-pyrrol-1-yl]-N-[1-((R)-2,3-dihydroxy-propyl)-1H-pyrazol-3-yl]-3-(2,6-difluorophenyl)-propionamide]",0.371

# Source: patent US7741327B2 (Hoffmann-La Roche Inc., priority 2008, dated 2010)
